Experimental data as given in patent publication US4301313A, “Halogenated ethynyl biphenyls” (Eli-Lilly and Company, priority 1974, dated 1981).
Values joined by “and” are separate entries in the source; they are usually repeats but may differ in a detail not shown here. Equal values may be shown once.

Experiments:
[1] = carrageenin-induced hind paw inflammation; type: in vivo; conditions: Rattus norvegicus
Protocol: (§1) Representative compounds were also evaluated for anti-inflammatory activity in the test method described by C. A. Winter at 111 Proc. Soc. Exp. Biol. Med., 544 (1962). In this method, inflammation is created by injecting carrageenin into the hind paw of rats. Test compounds are administered prior to injection to determine percent inhibition of the subsequent inflammation, in comparison with control animals.

[2] = ultraviolet-induced erythema blocking test, oral (modified Winder method); type: in vivo, guinea pig (male albino); conditions: Cavia porcellus, guinea pig, weighted scores 1.0-2.5 h after UV, dose which provides 50% inhibition
Protocol: The compounds of the present invention were evaluated for anti-inflammatoryactivity by the ultraviolet-induced erythema blocking test. The test procedures were a modification of the Winder method (Winder, C. V.; Wax, J.; Burr, V.; Been, M.; and Posiere, C. E.: A Study of Pharmacological Influences on Ultraviolet Erythema in Guinea Pigs. Arch. Int. Pharmacodyn. 116: 261, 1958). Male albino guinea pigs weighing 240-300 gm. were used. The hair on the back was clipped and chemically depilated 15-18 hours before each experiment. The animals were fasted overnight, and on the day of the experiment, were randomized and placed in clear plastic partitioned holders 10×20 cm. wide and 15 cm. high.
The compounds to be tested were suspended in 1% methyl cellulose in water, utilizing a tissue homogenizer. The suspensions were administered orally in a volume of 2.0 ml./kg. of body weight. Control animals received an equal amount of the vehicle.
The source of ultraviolet light was a Hanovia lamp (Kromayer-Model 10). A notebook reinforcement ring was placed upon the lens of the lamp to provide an area of contrast for grading purposes. The lens was then placed in contact with the skin of the guinea pig's back. Exposure time to UV was for a period of 4 seconds. Beginning one hour after exposure and thereafter at half-hour intervals for another 11/2 hours, the degree of resulting erythema was graded by an arbitrary scoring system based upon the degree of contrast and redness formed. Anti-inflammatory agents delay the development of the erythema and have their greatest effect at the initial grading periods. The scores were, therefore, weighted by factors of 4, 3, 2, and 1 at the 1.0, 1.5, 2.0, and 2.5 hour scoring times, respectively. The erythema was graded as follows:
Total scores from each treatment group of four guinea pigs were compared to the scores of the control group. The percent inhibition was calculated as follows: [formula] In the case of compounds showing inhibition, retesting was carried out at a plurality of doses to enable calculation of an ED50 for each such compound. "ED50 " designates that dose which provides 50% inhibition. Calculation of the ED50 was either by a standard linear regression method or by estimation from a dose-response curve of three or more points. The compounds so tested and their ED50 s were as follows: […]

[3] = carrageenin induced test, compound administered about 20 hours prior; type: in vivo; conditions: rat, dose 10 (unit not given), about 20 hours prior to test
Protocol: as §1
Each of 4-biphenylylacetylene and (4-(2-fluorophenyl)phenyl)acetylene was evaluated again in the carrageenin induced test method reported in Examples 60-80. However, in these tests, the compound was administered about 20 hours prior to the test procedures.

[4] = adjuvant-induced arthritis test (paw volume); type: in vivo, rat (male albino); conditions: rat, oral
[5] = analgesic activity, acetic acid-induced writhing; type: in vivo, mouse (albino male); conditions: mouse, p.o., dose reducing writhing frequency by 50%; 30, 90, 180 minutes after administration
Protocol: Representative compounds were also evaluated for analgesic activity. The evaluation was conducted by using acetic acid-induced writhing in mice as the pain model. Clinically effective analgesis are effective when tested in this model: see Koster et al., "Acetic Acid for Analgesic Screening," 18 Fed. Proc. 412 (1959).
In a method similar to that reported by Koster et al., standard strain albino male mice weighing 20-22 grams were fasted overnight. The respective compound or vehicle (as control) was administered by gastric lavage (p.o.). Each compound was administered in an aqueous suspension of 1% methylcellulose in water. […] At 30, 90, and 180 minutes after administration, writhing was induced by the intraperitoneal administration of 55 mg./kg. of acetic acid (0.55%). Each treatment group consisted of 5 mice and separate groups were examined at each observation time. The total number of writhes for the treatment group were counted in a 10-minute observation period starting 5 minutes after the acetic acid administration. The treatment totals were compared to controls and a percent inhibition calculated as follows: [formula] […] An ED50, which represented the dose that would reduce the writhing frequency by 50%, was estimated from a dose-reponse curve of three or more points. A dose range was reported if only two points were availale for the dose response curve and they bracketed the 50% level. If data was available at 100 mg./kg., only, then the estimated ED50 was reported simply as less than 100 (<100).

[6] = dose not printed (line below dose 25)

C#Cc1ccc(-c2ccccc2)cc1 [4-biphenylylacetylene, 4-Biphenylylacetylene] gave an inhibition in vivo at 0.5 mg/kg ([1]; 0.5 mg./kg.) of 0%, an inhibition in vivo at 3 mg/kg ([1]; 3 mg./kg.) of 36% and an inhibition in vivo at 5 mg/kg ([1]; 5 mg./kg.) of 37%. It also gave an inhibition in vivo at 10 mg/kg ([1]; 10 mg./kg.) of 42%, an inhibition in vivo at 20 mg/kg ([1]; 20 mg./kg.) of 45% and an inhibition in vivo at 50 mg/kg ([1]; 50 mg./kg.) of 41%. The ED50 [2] was 0.9 mg/kg, the “% Inhibition” value [3] was 44% and 28% and the “Percent Inhibition of Volume Increase, Day 7” value ([4]; dose 0.3 (unit not given)) was 15%. The “Percent Inhibition of Volume Increase, Day 14” value ([4]; dose 0.3 (unit not given)) was 0%, the “Percent Inhibition of Volume Increase, Day 7” value ([4]; dose 1 (unit not given)) was 0% and the “Percent Inhibition of Volume Increase, Day 14” value ([4]; dose 1 (unit not given)) was 0%. For the same compound, the “Percent Inhibition of Volume Increase, Day 7” value ([4]; dose 3 (unit not given)) was 14%, the “Percent Inhibition of Volume Increase, Day 14” value ([4]; dose 3 (unit not given)) was 7% and the “Percent Inhibition of Volume Increase, Day 7” value ([4]; dose 25 (unit not given)) was 29%. The “Percent Inhibition of Volume Increase, Day 14” value ([4]; dose 25 (unit not given)) was 37%, the “Percent Inhibition of Volume Increase, Day 7” value [4, 6] was 37% and the “Percent Inhibition of Volume Increase, Day 14” value [4, 6] was 23%. For the same compound, the “Estimated ED50” value [5] was 50 mg/kg.
